Measured values taken from patent US7767210B2, “RNA virus vaccines and methods” (priority 2005, dated 2010).

Assays:
[1] = cited from earlier work
NY-99 strain of WNV = assay: MB + light inactivation of WNV, plaque assay on Vero cells; format: cell-based, West Nile Virus; settings: MB above 2 μM and light; data not shown; stated as 'held true' for this strain
Description: (§1) MB inactivation of West Nile Virus. 1 ml aliquots of WNV at a concentration of 10^7 pfu were mixed with MB (SIGMA INC.) to achieve the desired final concentration of MB in the reaction mixture. Mixtures were incubated for 20 minutes in the dark at room temperature and then subsequently for 10 minutes at 10 cm distance from a 40 watt fluorescent white culture hood light at room temperature. Samples were then diluted to the desired concentration of WNV for plaque assay. Inactivated virus was prepared fresh for each assay and never kept for longer than 2 hours at 4° C. before use. It is contemplated that other RNA viruses as described herein can be similarly treated for vaccine formation.
(§2) Plaque Assays. Five-fold serial dilutions of WNV strains either mock-treated or treated with MB were placed onto Vero cell monolayers cultured in either 6-well plates or T25 culture flasks (GREINER INC.). Virus aliquots were allowed to attach to the cells for 1 hour at normal cell culture conditions. After one hour the virus was aspirated from the cells. The monolayers were washed twice with phosphate-buffer saline (PBS) and overlayed with 2 ml or 5 ml (6-well or T25, respectively) of 1% methylcellulose (SIGMA INC.) medium supplemented with 2% calf serum. Cells were incubated for 5 days. Afterwards the methylcellulose was removed, the monolayers were washed once with PBS and fixed with 100% ice-cold methanol for 5 minutes. The monolayers were subsequently stained with 0.5% Giemsa stain (SIGMA INC.) and plaques counted using a MZ12 dissecting microscope (LEICA INC., Germany).
(§3) As a member of the Flaviviridae family of viruses, WNV utilizes a RNA dependent RNA polymerase for replication. This process is relatively error prone and can lead to the creation of multiple strains. To test the ability of MB to inactivate multiple WNV strains, MB was tested against multiple strains of WNV, including OK02, OK03 and NY-99 (the 1999 prototype virus NY-99 and the more recent Oklahoma isolates from 2002 and 2003). 5×10^3 pfu of OK03 WNV was incubated with 2 μM MB and light. […]

OK03 strain of WNV = assay: as above; format: cell-based, West Nile Virus; settings: MB above 2 μM and light; FIG. 2 panel B; stated as 'held true' for this strain
Description: as §1, §2, §3

OK02 strain of WNV = assay: as above; format: cell-based, West Nile Virus; settings: MB above 2 μM and light; FIG. 2 panel A
Description: as §1, §2, §3

WNV [2] = assay: MB photoinactivation of WNV in tissue culture (strain not stated); format: cell-based, West Nile Virus
Description: as §1
as §2, with “Cells were incubated for 5 days. Afterwards the methylcellulose was removed, the monolayers were washed once with PBS and fixed with 100% ice-cold methanol for 5 minutes.” left out

WNV strain OK02 = assay: Safety of MB-treated WNV in immunocompetent mice (i.p. injection, survival); format: in vivo, BalbC/j mice; settings: virus treated with MB+light, doses of 10^3 and 10^4 pfu per animal
WNV [3] = assay: Safety of MB-treated WNV in immunodeficient mice (i.p. injection, survival); format: in vivo, C.B. 17-SCID mice; settings: 20 μM MB; conclusion from BalbC/j and SCID mice

CN(C)c1ccc2nc3ccc(N(C)C)cc3[s+]c2c1.[Cl-] [MB, 3,7-Bis(dimethylamino)phenothiazin-5-ium chloride]
oral absorption ([1]; DiSanto and Wagner 1972): absorbed orally
concentration in blood ([1]; oral 100 mg/kg twice daily (Naylor et al., 1986)): ~50 µM
half-life ([1]; oral (DiSanto and Wagner 1972)): about 10 h
side effects on long-term oral use ([1]; oral, up to 19 months at 100 mg/kg twice daily (Naylor et al., 1986)): no reported side effects
reduction of viral activity (NY-99 strain of WNV): ≥ 10^3
reduction of viral activity (OK03 strain of WNV): ≥ 10^3
reduction of viral activity (OK02 strain of WNV): ≥ 10^3
reduction of virus titer (WNV [2]; 20 μM MB + light): 10^7 pfu
IC50 (WNV [2]; West Nile virus, MB + light, tissue culture, read-out: IC50 of MB+light inactivation of WNV): 100 nM
WNV-associated morbidity and mortality (WNV strain OK02): completely block-associated morbidity and mortality
effect on WNV-associated morbidity and mortality in vivo (WNV [3]): can stop WNV-associated morbidity and mortality
